Measurements published in patent US12370236B2, “Method and combination for the suppression of COVID-19 virus” (priority 2021, dated 2025).

Experiments:
Vero E6 cells = assay: Cytotoxicity assay; format: cell-based
Experimental: (§1) FIGS. 6A and 6B show the cytotoxicity of norvancomycin (NV) and nelfinavir (NF). The percentage of cell survival is determined by obtaining cell viability of Vero E6 cells in the presence of drugs of interest and trace amount of DMSO that help fully dissolve the drug, normalized by Vero E6 cells in the presence of the same concentration of said DMSO, which serves as a control, the cell viability in the absence of the drugs. 50% cytotoxic concentration (CC50) represents the concentration of NV and NF required to reduce cell survival by 50%.
(§2) Cytotoxicity assay was performed using Vero E6 cells described above to determine the cytotoxicity of tested compounds, i.e., norvancomycin and nelfinavir. DMSO, the solvent used to help fully dissolve the drugs of interest, was used as the negative control. The percentage of cell survival and 50% cytotoxic concentration (CC50) were derived.

Cytotoxicity assay = format: cell-based; conditions: African green monkey, Vero E6 cells
Experimental: as §1, §2

[1] = test system: SARS-CoV2 hCoV-19/Taiwan/NTU13/2020; assay: Plaque reduction assay in Vero E6 cells; format: cell-based
3CL^pro = molecular target: T1, 3CL^pro (Severe acute respiratory syndrome coronavirus 2, UniProt P0DTD1); assay: FRET-based 3CL^pro enzyme activity assay; format: biochemical, SARS-CoV2
T1 construct: A 3CL^pro (Cat. #78042-1) assay kit (BPS Bioscience, CA, USA) was used; purchased BPS Bioscience 78042-1
Experimental: FIG. 1 is a scheme of the fluorogenic 3CL^pro protease enzymatic assay. The fluorescence of Edans in the C-terminal of the peptide substrate (Dabcyl-[…]-Edans, the cleavage site is in between the amino acids Q and S) is quenched by the Dabcyl in the N-terminus without the 3CL^pro enzymatic cleavage. After the protease is added and cleaves the peptide substrate, the quencher molecule Dabcyl can no longer quench the fluorophore Edans which results in an increase in fluorescence emission at 460 nm. The intensity of this fluorescence is proportional to the protease activity. FRET: fluorescence resonance energy transfer.
3CL^pro inhibition percentage of different test groups is determined by “(Isubstrate+3CLpro−Itest_group)/(Isubstrate+3CLpro−Isubstrate)×100%, where “I” is the observed intensity of blue fluorescence light (at 460 nm); Isubstrate and Isubstrate+3CLpro are supposed to give the lowest and the highest intensity, respectively, where the substrate is a peptide labeled by a quencher and fluorophore at its N- and C-termini (as shown in FIG. 1). Specifically, the fluorescence of Edans in the C-terminal of the peptide (Dabcyl-[…]-Edans; the cleavage site is in between the amino acids Q and S) is quenched by the Dabcyl in the N-terminus in the absence of the 3CL^pro enzymatic cleavage. Norvancomycin (Nv) is the interface blocker here while the FDA drugs boceprevir (Bc) and GC376 (in its clinical trials) are the active-site inhibitors. The results are shown by the average value of two replicates.
The FRET-based assay was designed for 3CL^pro activity assay and explained in FIG. 1. The 3CL^pro enzyme assay was developed in a 96-well black microplate with a total volume of 50 μL. 30 μL of 0.5 ng/μL enzyme in a reaction buffer was added into each well, followed by the addition of 10 μL substrate solution to a final concentration of 40 μM. Enzymatic reaction gave fluorescence whose intensity was measured after incubation for 4 hours at 37° C. with slow shaking in a microtiter plate reading fluorimeter (BioTek Synergy HTX multi-mode reader, VT, US) with Ex=340 nm/Em=460 nm. […]

Row | SMILES | cell survival rate (Vero E6 cells; 1.8 μM nelfinavir) [%] | cell survival rate (Vero E6 cells; 3.6 μM nelfinavir) [%] | CC50 (Cytotoxicity assay) [µM] | suppression of SARS-CoV2 replication ([1]; 0.9 μM nelfinavir) [%] | suppression of SARS-CoV2 replication ([1]; 1.8 μM nelfinavir) [%] | suppression of SARS-CoV2 replication ([1]; 1.8 μM nelfinavir together with 37.5 μM norvancomycin) [%] | suppression of SARS-CoV2 replication ([1]; 3.6 μM nelfinavir) [%] | suppression of SARS-CoV2 replication ([1]; 3.6 μM nelfinavir and 37.5 μM norvancomycin) [%] | CC50 (Vero E6 cells) [µM] | suppression of SARS-CoV2 replication ([1]; 40 μM norvancomycin) [%] | extra 3CL^pro inhibition vs GC376 alone (3CL^pro; 25 μM norvancomycin in combination with 16 nM GC376) [%] | additional 3CL^pro inhibition (3CL^pro; 50 μM norvancomycin in combination with 25 μM boceprevir) [%] | elevation of 3CL^pro inhibition (3CL^pro; co-used with 25 μM boceprevir at molar ratio 1:1)
1 | Cc1c(O)cccc1C(=O)N[C@@H](CSc1ccccc1)[C@H](O)CN1C[C@H]2CCCC[C@H]2C[C@H]1C(=O)NC(C)(C)C [nelfinavir] | 84 | 69 | 8.26 ± 0.495 | 41 | 35 | 100 | 100 | 100 |  |  |  |  | 
2 | CC(C)C[C@@H](N)C(=O)N[C@H]1C(=O)N[C@@H](CC(N)=O)C(=O)N[C@H]2C(=O)N[C@H]3C(=O)N[C@H](C(=O)N[C@H](C(=O)O)c4cc(O)cc(O)c4-c4cc3ccc4O)[C@H](O)c3ccc(c(Cl)c3)Oc3cc2cc(c3O[C@@H]2O[C@H](CO)[C@@H](O)[C@H](O)[C@H]2O[C@H]2C[C@](C)(N)[C@H](O)[C@H](C)O2)Oc2ccc(cc2Cl)[C@H]1O [Norvancomycin] |  |  |  |  |  |  |  |  | > 100 | 4 | 10 | 17 | around 10%
